Results published in patent US20240197680A1, “VORUCICLIB DOSING REGIMENS AND METHODS OF TREATMENT INCLUDING THE SAME” (MEI Pharma, Inc., priority 2021, published 2024).

What was measured:
[1] = tested on: HCT-116 CRC cell xenograft; settings: SCID, mouse, in vivo, po, 100 mg/kg
Procedure: Animals were randomized into 2 groups when tumors reached 100 mm diameter. Group A assigned single dosing. […] Drug concentration was measured in tumor and plasma after last dose at the following time points: 0, 4, 8, 24, 48, 72 hrs. […] Concentration of voruciclib in plasma is in units of μg/ml and in μg/g for tumors.

[2] = Monotherapy Phase 1 studies in solid tumors: safety profile; assay type: in vivo, human; settings: Phase 1 monotherapy
[3] = tested on: Venetoclax Sensitive and Resistant Cell Lines; test: Synergy with venetoclax in cell lines; assay type: cell-based; settings: Ven Sensitive and Ven Resistant cell lines
Source text: FIG. 4A: Ven Sensitive; FIG. 4B: Ven Resistant.

[4] = PK of voruciclib, daily dosing continuously (Table 2); assay type: in vivo, human; settings: mean; for Accumulation Ratio (AUC0-t): Day 15/Day 1
Solid Tumors [5] = test: Monotherapy Phase 1 study in solid tumors, 2 weeks on/1 week off schedule; assay type: in vivo, human; settings: 29 pts
Gelling in aqueous media = assay type: physicochemical
Procedure: Voruciclib can form a gel when dissolved in various media, depending on the other chemicals present. […] In general, voruciclib was more prone to gel at suspension concentrations >5 mg/mL and solubilities >0.5 mg/mL.

[6] = PK of voruciclib, 2 weeks of daily dosing followed by 1 week without dosing in a 21-day cycle (Table 1); assay type: in vivo, human; settings: mean
[7] = tested on: Relapsed/Refractory B-cell malignancies; Relapsed/Refractory AML; assay type: in vivo, human
Procedure: Study population: Relapsed/Refractory B-cell malignancies; Relapsed/Refractory AML; Dose escalation with standard 3+3 design.
Endpoints: Safety and tolerability, Pharmacokinetics, Biologic correlative studies (BH3 profiling, MCL-1 expression, molecular mutations analysis), Response rates.
Voruciclib single agent dose escalation: 50 mg>100 mg>150 mg>200 mg.
Differentiation syndrome seen in 5 pts (50%) (Increased WBC without increased in blasts, bone pain, pulmonary symptoms; Response to corticosteroids).

Solid Tumors [8] = test: Monotherapy Phase 1 study in solid tumors, daily continuously schedule; assay type: in vivo, human
clinical = settings: human, in vivo
Source text: Voruciclib half-life is designated as t1/2 in the tables (expressed in hours). […] There is interpatient variability, explaining the outlier values.

c-MYC expression = test: Gene biomarkers in Phase 1 daily dosing study: c-MYC expression in solid tumors; assay type: in vivo, human

## CN1CC[C@@H](c2c(O)cc(O)c3c(=O)cc(-c4ccc(C(F)(F)F)cc4Cl)oc23)[C@@H]1CO [Voruciclib, (+)-trans-2-(2-chloro-4-trifluoromethylphenyl)-5,7-dihydroxy-8-(2-hydroxymethyl-1-methylpyrrolidin-3-yl)-chromen-4-one]
[1]
  level in tumor at 8 hours compared to 24 hours post dosing: > 5 fold
[2]
  most common AEs: involved GI tract
  myelosuppression: no evidence of myelosuppression
[3]
  synergy with Venetoclax: Synergizes
[4]; Day 1, 75 mg
  t½: 21.776 h
[4]; Day 1, 150 mg
  AUC0-∞: 15592.890 ng·h/mL
[4]; Day 1, 250 mg
  AUC0-∞: 16383.699 ng·h/mL
  Cmax: 471.955 ng/mL
[4]; Day 1, 350 mg
  AUC0-24: 10388.095 ng·h/mL
  CL/F: 4.224 L/h
[4]; Day 1, 500 mg
  AUC0-24: 16370.472 ng·h/mL
  AUC0-t: 16370.472 ng·h/mL
  CL/F: 2.107 L/h
[4]; 75 mg
  Accumulation Ratio (AUC0-t): 2.634
[4]; 150 mg
  Accumulation Ratio (AUC0-t): 3.637
[4]; 250 mg
  Accumulation Ratio (AUC0-t): 3.090
[4]; 350 mg
  Accumulation Ratio (AUC0-t): 2.767
[4]; 500 mg
  Accumulation Ratio (AUC0-t): 2.577
[4]; Day 15, 75 mg
  AUC0-∞: 27200.362 ng·h/mL
[4]; Day 15, 150 mg
  AUC0-24: 16642.661 ng·h/mL
  AUC0-t: 16642.661 ng·h/mL
  AUC0-∞: 164073.250 ng·h/mL
  t½: 131.733 h
[4]; Day 15, 250 mg
  Cmax: 1047.832 ng/mL
  t½: 38.750 h
[4]; Day 15, 350 mg
  AUC0-∞: 164113.625 ng·h/mL
  CL/F: 1.607 L/h
[4]; Day 15, 500 mg
  AUC0-24: 40465.337 ng·h/mL
  AUC0-t: 40465.337 ng·h/mL
  AUC0-∞: 108301.704 ng·h/mL
  CL/F: 1.031 L/h
Solid Tumors [5]
  PR (number of patients): 1
Gelling in aqueous media
  solubility at which more prone to gel: > 500 µg/mL
  suspension concentration at which more prone to gel: > 5 mg/mL
Gelling in aqueous media; pH 1.6 (FaSSGF)
  Gelling: Gelling was observed
Gelling in aqueous media; pH 6.5 (FaSSIF)
  Gelling: Gelling was observed
[6]; Day 1, 600 mg
  t½: 32.544 h
[6]; Day 13, 300 mg
  AUC0-∞: 59331.780 ng·h/mL
  t½: 16.166 h
[6]; Day 13, 850 mg
  t½: 22.380 h
[7]; AML patients
  Differentiation syndrome (number of pts): 5
  Differentiation syndrome (share of pts): 50%
[7]; human, in vivo
  Cmax and AUC dose dependence: Dose proportional
  volume of distribution: High
[7]; in vivo
  GI toxicity or neutropenia: No GI toxicity or neutropenia
Solid Tumors [8]
  duration of SD, median: 15 weeks
clinical
  additional time to clear from the tissue after it clears the plasma: 3 days
  half-life: 120 to 240 h
c-MYC expression
  patients with decreased c-MYC expression / patients tested: 17/25
